ChEMBL document CHEMBL1145534 (2007)
Converted amounts (≈) assume the structure as drawn.

Key:
Type in all cases: functional
Corynebacterium sp. = assay: Antimicrobial activity against Corynebacterium spp. at 0.5 ug/ml by broth microdilution method
Corynebacterium jeikeium [1] = assay: Antimicrobial activity against Corynebacterium jeikeium by broth microdilution method
Listeria monocytogenes [2] = assay: Antimicrobial activity against Listeria monocytogenes at 0.5 ug/ml by broth microdilution method
[3] = tested on: Enterococcus casseliflavus; assay: Antimicrobial activity against Enterococcus casseliflavus at 2 ug/ml by broth microdilution method
Rothia mucilaginosa [4] = assay: Antimicrobial activity against Rothia mucilaginosa at 0.5 ug/ml by broth microdilution method
Corynebacterium jeikeium [5] = assay: Antimicrobial activity against Corynebacterium jeikeium at 1 ug/ml by broth microdilution method
Streptococcus [6] = assay: Antimicrobial activity against beta hemolytic Streptococci group G at 0.12 ug/ml by broth microdilution method
[7] = tested on: Enterococcus casseliflavus; assay: Antimicrobial activity against Enterococcus casseliflavus at 0.5 ug/ml by broth microdilution method
[8] = tested on: Streptococcus intermedius; assay: Antimicrobial activity against viridans group Streptococcus intermedius at 0.25 ug/ml by broth microdilution method
Streptococcus salivarius = assay: Antimicrobial activity against viridans group Streptococcus salivarius by broth microdilution method
[9] = tested on: Streptococcus intermedius; assay: Antimicrobial activity against viridans group Streptococcus intermedius at <= 0.06 ug/ml by broth microdilution method
Streptococcus mitis [10] = assay: Antimicrobial activity against viridans group Streptococcus mitis at 0.5 ug/ml by broth microdilution method
[11] = tested on: Streptococcus parasanguinis; assay: Antimicrobial activity against viridans group Streptococcus parasanguis at 0.25 ug/ml by broth microdilution method
Enterococcus hirae = assay: Antimicrobial activity against Enterococcus hirae by broth microdilution method
Streptococcus oralis = assay: Antimicrobial activity against viridans group Streptococcus oralis at 0.12 ug/ml by broth microdilution method
Streptococcus mitis [12] = assay: Antimicrobial activity against viridans group Streptococcus mitis at <= 0.06 ug/ml by broth microdilution method
[13] = tested on: Streptococcus constellatus; assay: Antimicrobial activity against viridans group Streptococcus constellatus at 0.25 ug/ml by broth microdilution method
Streptococcus mitis [14] = assay: Antimicrobial activity against viridans group Streptococcus mitis at 2 ug/ml by broth microdilution method
Enterococcus gallinarum [15] = assay: Antimicrobial activity against Enterococcus gallinarum at 0.5 ug/ml by broth microdilution method
Aerococcus = assay: Antimicrobial activity against Aerococcus spp. at 2 ug/ml by broth microdilution method
Corynebacterium jeikeium [16] = assay: Antimicrobial activity against Corynebacterium jeikeium at 0.5 ug/ml by broth microdilution method
Listeria monocytogenes [17] = assay: Antimicrobial activity against Listeria monocytogenes at 0.12 ug/ml by broth microdilution method
Streptococcus mutans [18] = assay: Antimicrobial activity against viridans group Streptococcus mutans at <= 0.06 ug/ml by broth microdilution method
Enterococcus durans [19] = assay: Antimicrobial activity against Enterococcus durans by broth microdilution method
Streptococcus [20] = assay: Antimicrobial activity against beta hemolytic Streptococci group C at <= 0.06 ug/ml by broth microdilution method
[21] = tested on: Streptococcus vestibularis; assay: Antimicrobial activity against viridans group Streptococcus vestibularis at 1 ug/ml by broth microdilution method
Streptococcus mutans [22] = assay: Antimicrobial activity against viridans group Streptococcus mutans at 0.12 ug/ml by broth microdilution method
Bacillus sp. = assay: Antimicrobial activity against Bacillus spp. by broth microdilution method; settings: Bacillus sp. (in: firmicutes)
Streptococcus [23] = assay: Antimicrobial activity against beta hemolytic Streptococci group G at <= 0.06 ug/ml by broth microdilution method
[24] = tested on: Streptococcus constellatus; assay: Antimicrobial activity against viridans group Streptococcus constellatus at 0.5 ug/ml by broth microdilution method
Enterococcus gallinarum [25] = assay: Antimicrobial activity against Enterococcus gallinarum at 1 ug/ml by broth microdilution method
Micrococcus luteus = assay: Antimicrobial activity against Micrococcus luteus by broth microdilution method
[26] = tested on: Streptococcus intermedius; assay: Antimicrobial activity against viridans group Streptococcus intermedius at 0.12 ug/ml by broth microdilution method
Streptococcus sanguinis = assay: Antimicrobial activity against viridans group Streptococcus sanguinis at 2 ug/ml by broth microdilution method
Rothia mucilaginosa [27] = assay: Antimicrobial activity against Rothia mucilaginosa at 0.12 ug/ml by broth microdilution method
Corynebacterium striatum [28] = assay: Antimicrobial activity against Corynebacterium striatum by broth microdilution method
Streptococcus mutans [29] = assay: Antimicrobial activity against viridans group Streptococcus mutans at 1 ug/ml by broth microdilution method
[30] = tested on: Corynebacterium amycolatum; assay: Antimicrobial activity against Corynebacterium amycolatum at 0.25 ug/ml by broth microdilution method
Rothia mucilaginosa [31] = assay: Antimicrobial activity against Rothia mucilaginosa at 2 ug/ml by broth microdilution method
Enterococcus gallinarum [32] = assay: Antimicrobial activity against Enterococcus gallinarum at 2 ug/ml by broth microdilution method
Streptococcus gordonii = assay: Antimicrobial activity against viridans group Streptococcus gordonii at 0.25 ug/ml by broth microdilution method
Enterococcus raffinosus = assay: Antimicrobial activity against Enterococcus raffinosus by broth microdilution method
[33] = tested on: Corynebacterium pseudodiphtheriticum; assay: Antimicrobial activity against Corynebacterium pseudodiphtheriticum by broth microdilution method
[34] = tested on: Enterococcus casseliflavus; assay: Antimicrobial activity against Enterococcus casseliflavus at 0.25 ug/ml by broth microdilution method
Listeria monocytogenes [35] = assay: Antimicrobial activity against Listeria monocytogenes at 1 ug/ml by broth microdilution method
[36] = tested on: Streptococcus intermedius; assay: Antimicrobial activity against viridans group Streptococcus intermedius by broth microdilution method
Enterococcus gallinarum [37] = assay: Antimicrobial activity against Enterococcus gallinarum at 4 ug/ml by broth microdilution method
[38] = tested on: Corynebacterium pseudodiphtheriticum; assay: Antimicrobial activity against Corynebacterium pseudodiphtheriticum at 1 ug/ml by broth microdilution method
Corynebacterium striatum [39] = assay: Antimicrobial activity against Corynebacterium striatum at <= 0.06 ug/ml by broth microdilution method
[40] = tested on: Corynebacterium amycolatum; assay: Antimicrobial activity against Corynebacterium amycolatum at 0.12 ug/ml by broth microdilution method
Streptococcus equinus = assay: Antimicrobial activity against viridans group Streptococcus bovis at 0.25 ug/ml by broth microdilution method
Enterococcus durans [41] = assay: Antimicrobial activity against Enterococcus durans at 0.12 ug/ml by broth microdilution method
Enterococcus avium [42] = assay: Antimicrobial activity against Enterococcus avium by broth microdilution method
[43] = tested on: Streptococcus vestibularis; assay: Antimicrobial activity against viridans group Streptococcus vestibularis by broth microdilution method
Enterococcus avium [44] = assay: Antimicrobial activity against Enterococcus avium at 0.25 ug/ml by broth microdilution method

CC(=O)NC[C@H]1CN(c2ccc(N3CCOCC3)c(F)c2)C(=O)O1 [LINEZOLID]
inhibition at 0.5 µg/mL (Corynebacterium sp.): 92.4%
MIC50 (Corynebacterium jeikeium [1]): 0.25 µg/mL (≈ 0.741 µM)
MIC90 (Corynebacterium jeikeium [1]): 0.5 µg/mL (≈ 1.48 µM)
inhibition at 0.5 µg/mL (Listeria monocytogenes [2]): 0.7%
inhibition at 2 µg/mL [3]: 96.9%
inhibition at 0.5 µg/mL (Rothia mucilaginosa [4]): 83.3%
inhibition at 1 µg/mL (Corynebacterium jeikeium [5]): 100%
inhibition at 0.12 µg/mL (Streptococcus [6]): 0.5%
inhibition at 0.5 µg/mL [7]: 0%
inhibition at 0.25 µg/mL [8]: 0%
MIC50 (Streptococcus salivarius): 1 µg/mL (≈ 2.96 µM)
MIC90 (Streptococcus salivarius): 1 µg/mL (≈ 2.96 µM)
Inhibition [9]: 0%
inhibition at 0.5 µg/mL (Streptococcus mitis [10]): 33.4%
inhibition at 0.25 µg/mL [11]: 0%
MIC50 (Enterococcus hirae): 2 µg/mL (≈ 5.93 µM)
MIC90 (Enterococcus hirae): 2 µg/mL (≈ 5.93 µM)
inhibition at 0.12 µg/mL (Streptococcus oralis): 0.7%
Inhibition (Streptococcus mitis [12]): 0.3%
inhibition at 0.25 µg/mL [13]: 12.4%
inhibition at 2 µg/mL (Streptococcus mitis [14]): 100%
inhibition at 0.5 µg/mL (Enterococcus gallinarum [15]): 1.7%
inhibition at 2 µg/mL (Aerococcus): 100%
inhibition at 0.5 µg/mL (Corynebacterium jeikeium [16]): 98.3%
inhibition at 0.12 µg/mL (Listeria monocytogenes [17]): 0%
Inhibition (Streptococcus mutans [18]): 0%
MIC50 (Enterococcus durans [19]): 2 µg/mL (≈ 5.93 µM)
MIC90 (Enterococcus durans [19]): 2 µg/mL (≈ 5.93 µM)
Inhibition (Streptococcus [20]): 0%
inhibition at 1 µg/mL [21]: 100%
inhibition at 0.12 µg/mL (Streptococcus mutans [22]): 0%
MIC50 (Bacillus sp.): 1 µg/mL (≈ 2.96 µM)
MIC90 (Bacillus sp.): 1 µg/mL (≈ 2.96 µM)
Inhibition (Streptococcus [23]): 0.5%
inhibition at 0.5 µg/mL [24]: 42.7%
inhibition at 1 µg/mL (Enterococcus gallinarum [25]): 30.3%
MIC50 (Micrococcus luteus): 0.5 µg/mL (≈ 1.48 µM)
MIC90 (Micrococcus luteus): 1 µg/mL (≈ 2.96 µM)
inhibition at 0.12 µg/mL [26]: 0%
inhibition at 2 µg/mL (Streptococcus sanguinis): 100%
inhibition at 0.12 µg/mL (Rothia mucilaginosa [27]): 5.6%
MIC50 (Corynebacterium striatum [28]): 0.25 µg/mL (≈ 0.741 µM)
MIC90 (Corynebacterium striatum [28]): 0.5 µg/mL (≈ 1.48 µM)
inhibition at 1 µg/mL (Streptococcus mutans [29]): 89.5%
inhibition at 0.25 µg/mL [30]: 100%
inhibition at 2 µg/mL (Rothia mucilaginosa [31]): 100%
inhibition at 2 µg/mL (Enterococcus gallinarum [32]): 99.2%
inhibition at 0.25 µg/mL (Streptococcus gordonii): 0%
MIC50 (Enterococcus raffinosus): 2 µg/mL (≈ 5.93 µM)
MIC90 (Enterococcus raffinosus): 2 µg/mL (≈ 5.93 µM)
MIC50 [33]: 0.5 µg/mL (≈ 1.48 µM)
MIC90 [33]: 0.5 µg/mL (≈ 1.48 µM)
inhibition at 0.25 µg/mL [34]: 0%
inhibition at 1 µg/mL (Listeria monocytogenes [35]): 29.2%
MIC50 [36]: 1 µg/mL (≈ 2.96 µM)
MIC90 [36]: 2 µg/mL (≈ 5.93 µM)
inhibition at 4 µg/mL (Enterococcus gallinarum [37]): 100%
inhibition at 1 µg/mL [38]: 100%
Inhibition (Corynebacterium striatum [39]): 0%
inhibition at 0.12 µg/mL [40]: 27.3%
inhibition at 0.25 µg/mL (Streptococcus equinus): 2.7%
inhibition at 0.12 µg/mL (Enterococcus durans [41]): 0%
MIC50 (Enterococcus avium [42]): 1 µg/mL (≈ 2.96 µM)
MIC90 (Enterococcus avium [42]): 2 µg/mL (≈ 5.93 µM)
MIC50 [43]: 1 µg/mL (≈ 2.96 µM)
MIC90 [43]: 1 µg/mL (≈ 2.96 µM)
inhibition at 0.25 µg/mL (Enterococcus avium [44]): 0%
